How the values were obtained:
PKA = PKA inhibitor test in ECIS/TER assay (HPAEC); assay type: cell-based, human; settings: H-89 pretreatment 30 min, then 50 μM β-NAD
Text: (§1) The barrier properties of endothelial cells monolayers were characterized using a highly sensitive electrical cell-substrate impedance sensing (ECIS) instrument to measure transendothelial electrical resistance (TER) as described (Birukova et al., 2004a. Microvasc Res 67(1):64-77; Kolosova et al., 2005, Circ Res 97(2):115-124). The TER data was normalized to the initial voltage.
To elucidate the signaling pathways involved in β-NAD-induced HPAEC TER increase, the cAMP-activated protein kinase A (PKA) and the nucleotide exchange protein directly activated by cAMP (EPAC) pathways were examined. Since activation of P2Y11 receptors may lead to the Gas-mediated pathway including direct stimulation of adenylate cyclase, elevation of cAMP levels and cAMP-dependent activation of PKA, a simple inhibitory test was performed to confirm an activation of PKA and its participation in β-NAD-induced HPAEC barrier enhancement. For this test, H-89, an inhibitor of PKA activity, was used in ECIS experiments. HPAEC were pre-treated with H-89 for 30 min and then challenged with β-NAD and the effect of β-NAD-mediated barrier enhancement was determined using TER measurement.

P2Y1 receptor = target: T1, P2Y1 receptor (Homo sapiens, UniProt P47900); assay: P2Y1 receptor antagonist study (TER, HPAEC); assay type: cell-based; set-up: dose or concentration left out as unconfirmed; settings: MRS2279 pretreatment 30 min, then b-NAD
T1 construct: To deplete the mRNA content of endogenous P2Y1, P2Y11 or EPAC1; endogenous in cells; host or cells: HPAEC (human pulmonary artery endothelial cells)
T1 sequence (P47900 whole entry): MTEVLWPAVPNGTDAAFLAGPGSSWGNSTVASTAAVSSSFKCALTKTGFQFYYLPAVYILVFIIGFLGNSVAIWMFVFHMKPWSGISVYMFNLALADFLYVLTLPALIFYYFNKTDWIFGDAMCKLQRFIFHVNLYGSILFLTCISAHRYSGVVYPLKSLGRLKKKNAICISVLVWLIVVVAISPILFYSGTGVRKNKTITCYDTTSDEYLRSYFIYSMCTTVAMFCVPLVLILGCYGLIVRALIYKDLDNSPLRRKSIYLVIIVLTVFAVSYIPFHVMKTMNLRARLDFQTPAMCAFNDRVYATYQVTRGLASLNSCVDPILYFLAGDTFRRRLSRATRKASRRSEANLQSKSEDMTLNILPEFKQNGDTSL
Method: as §1
(§2) HPAEC were pretreated with receptor-specific antagonists, MRS2279 or NF157, for 30 min, and then challenged with […] b-NAD. TER was registered throughout to examine the barrier enhancement induced by b-NAD in the presence or absence of the antagonists.

P2Y11 receptor = target: T2, P2Y11 receptor (Homo sapiens, UniProt Q96G91); assay: P2Y11 receptor antagonist study (TER, HPAEC); assay type: cell-based; settings: 1 mM NF157 pretreatment 30 min, then b-NAD
T2 construct: To deplete the mRNA content of endogenous P2Y1, P2Y11 or EPAC1; endogenous in cells; host or cells: HPAEC (human pulmonary artery endothelial cells)
T2 sequence (Q96G91 1-374): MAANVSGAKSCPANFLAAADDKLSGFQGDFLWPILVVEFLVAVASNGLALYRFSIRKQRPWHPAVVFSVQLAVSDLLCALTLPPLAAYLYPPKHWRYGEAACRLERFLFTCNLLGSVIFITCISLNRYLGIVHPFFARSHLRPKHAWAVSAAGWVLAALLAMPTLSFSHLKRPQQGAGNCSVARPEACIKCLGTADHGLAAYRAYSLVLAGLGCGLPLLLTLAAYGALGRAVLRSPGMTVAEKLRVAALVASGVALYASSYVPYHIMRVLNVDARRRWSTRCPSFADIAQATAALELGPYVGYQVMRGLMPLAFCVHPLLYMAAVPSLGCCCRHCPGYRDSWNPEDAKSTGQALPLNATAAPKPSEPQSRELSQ
Method: as §1, §2

HPAEC monolayers = assay: Transendothelial electrical resistance (TER) by ECIS in HPAEC monolayers; assay type: cell-based, human; settings: for TER of HPAEC monolayers after cytoskeleton-disrupting agent: agent alone, pretreatment 30 min
Method: Human pulmonary artery endothial cells (HPAEC) and EBM-2 complete medium were purchased from Lonza (Allendale, N.J.). HPAEC were cultured according to the manufacturer's protocol and utilized at early (3-6) passages.
as §1

[1] = tested on: LPS-induced mortality in mice; assay: LPS-induced mortality / survival; assay type: in vivo; settings: LPS alone, within four days
Method: Mice were injected with β-NAD (100 mg/kg, i.p) or vehicle (saline, i.p) 10 min after LPS (20 mg/kg, i.p) challenge. As a treatment strategy, β-NAD was given twice a day (i.p) for 4 days. […]

LPS-induced ALI in mice = assay: Evans Blue Dye-albumin (EBD) lung permeability; assay type: in vivo; settings: LPS alone treated mice; vehicle 4.57
Method: Mice were anesthetized with ketamine (150 mg/kg) and acetylpromazine (15 mg/kg) intraperitoneally (i.p.) before the exposure of the trachea via neck incision and intubation with 20-guage catheter and the right internal jugular vein was exposed via right chest incision for PBS or b-NAD installation. The mice were randomly divided into groups. LPS or sterile saline was instilled intratracheally (i.t.) via a 20-gauge catheter. Simultaneously, mice received either b-NAD (5.4 mg/kg, equivalent to final calculated plasma concentration […] or PBS in the control group intravenously (i.v.) through the internal jugular vein (IJ). The animals were allowed to recover for 18 hr. EBD was given through the IJ 2 hr prior to termination of the experiment. At termination, bronchoalveolar lavage (BAL) was collected. BAL was 1ml of 10% HBSS through the endotracheal catheter immediately on sacrifice with aspiration. BAL was immediately centrifuged and processed. After the BAL, ethylenediaminetetraacetic acid (EDTA) was used to flush the lungs of blood via the right heart ventricle and the lungs were then harvested. BAL and lungs were collected and stored at −70° C. for evaluation of lung injury.
Measurement of EBD concentration in the lungs was performed by injection of EBD (20 mg/kg) into the right internal jugular vein 2 hr before the termination of the experiment to assess the vascular leak. Lungs free of blood were weighed and snap frozen in liquid nitrogen. The left lung was weighed and homogenized, then incubated with two volumes of formamide (18 hr, 60° C.) and centrifuged (5000 g, 30 min, 20° C.). The extravasated EBD concentration (mg/g, lung) in the lung homogenate was calculated against a standard curve. In a separate experiment the EBD was injected into the right internal jugular vein as described above at 2 hrs prior to termination of the experiment and the left lung gross anatomy view was photographed with a Leica NCL150 Camera.

O=S(=O)(NCCNC/C=C/c1ccc(Br)cc1)c1cccc2cnccc12 [H-89]
effect of PKA inhibitor on β-NAD-induced TER increase (PKA): attenuated the β-NAD-induced HPAEC TER increase

CNc1nc(Cl)nc2c1ncn2[C@H]1C[C@@H](OP(=O)(O)O)[C@]2(COP(=O)(O)O)C[C@H]12 [MRS2279]
effect of P2Y1 antagonist on β-NAD-induced TER increase (P2Y1 receptor): attenuated the β-NAD-induced TER increase

O=C(Nc1cccc(C(=O)Nc2cc(C(=O)Nc3ccc(S(=O)(=O)O)c4cc(S(=O)(=O)O)cc(S(=O)(=O)O)c34)ccc2F)c1)Nc1cccc(C(=O)Nc2cc(C(=O)Nc3ccc(S(=O)(=O)O)c4cc(S(=O)(=O)O)cc(S(=O)(=O)O)c34)ccc2F)c1 [NF157]
effect of P2Y11 antagonist on β-NAD-induced TER increase (P2Y11 receptor): attenuated the β-NAD-induced TER increase more significantly

C=C1[C@@H](C)[C@H]2[C@H](Cc3ccccc3)NC(=O)[C@]23OC(=O)/C=C/[C@H](O)CCC[C@@H](C)C/C=C/[C@H]3[C@@H]1O [cytochalasin B, reference compound]
TER of HPAEC monolayers after cytoskeleton-disrupting agent (HPAEC monolayers): produced a prompt attenuation in TER

COC(=O)Nc1nc2ccc(C(=O)c3cccs3)cc2[nH]1 [nocodazole, reference compound]
TER of HPAEC monolayers after cytoskeleton-disrupting agent (HPAEC monolayers): compromises endothelial cell barrier integrity

lipopolysaccharide [LPS, reference compound]
mortality [1]: 100%
EBD-albumin in lung (average) (LPS-induced ALI in mice): 16.81 µg/g
decrease in TER from the baseline (HPAEC monolayers; LPS (100 ng/ml) alone): ~60%

pneumolysin [PLY, reference compound]
decrease in TER from the baseline (HPAEC monolayers; PLY alone (125 ng/ml)): ~80%

Source: US20120329860A1, “Uses of Beta-Nicotinamide Adenine Dinucleotide” (MEDICAL COLLEGE OF GEORGIA INSTITUTE, INC, priority 2010, published 2012)
